Data from patent US8362050B2, “Compounds and methods for modulating G protein-coupled receptors” (IRM LLC, priority 2008, dated 2013).
pEC50: −log10 of the molar value. Read-outs that look alike come from different tables or passages of the source.

Target: T1, Human GPR120 (Homo sapiens, UniProt Q5NUL3)
T1 construct: Ga16 (promiscuous G protein) fusion partner; expressed in transfected cells
T1 sequence (Q5NUL3 with tags, fused parts or gaps): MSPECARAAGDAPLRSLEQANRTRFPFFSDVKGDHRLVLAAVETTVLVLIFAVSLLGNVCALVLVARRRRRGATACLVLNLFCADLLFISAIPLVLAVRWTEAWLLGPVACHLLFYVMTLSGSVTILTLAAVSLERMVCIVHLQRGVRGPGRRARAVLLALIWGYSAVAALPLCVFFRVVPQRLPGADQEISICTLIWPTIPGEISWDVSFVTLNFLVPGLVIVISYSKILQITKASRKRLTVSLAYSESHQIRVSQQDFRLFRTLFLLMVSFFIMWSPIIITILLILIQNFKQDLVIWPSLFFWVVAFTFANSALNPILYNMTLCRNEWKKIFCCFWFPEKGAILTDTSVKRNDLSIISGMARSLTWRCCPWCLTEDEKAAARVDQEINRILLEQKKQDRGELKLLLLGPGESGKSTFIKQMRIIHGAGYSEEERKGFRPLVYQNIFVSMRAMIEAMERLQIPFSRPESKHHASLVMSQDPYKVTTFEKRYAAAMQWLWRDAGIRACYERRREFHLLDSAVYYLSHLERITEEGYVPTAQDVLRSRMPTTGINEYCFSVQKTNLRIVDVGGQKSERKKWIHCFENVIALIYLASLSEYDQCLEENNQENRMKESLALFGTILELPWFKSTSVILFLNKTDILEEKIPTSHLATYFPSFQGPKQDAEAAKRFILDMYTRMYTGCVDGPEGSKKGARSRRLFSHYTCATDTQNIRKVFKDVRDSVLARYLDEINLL
Experiment: FLIPR assay: agonist-induced calcium mobilization in HEK293-GPR120-Ga16 cells
Format: cell-based
Conditions: for pEC50: GPR120 activation, calcium mobilization, HEK293-GPR120-Ga16 cells; for Emax: % enhancement of the test compound relative to a known compound, read-out: % Efficiency
Description: Human GPR120 stable cell-line was generated in HEK293 cells. GPR120 (Accession number BC101175) is fused to a promiscuous G protein, Ga16. The expression plasmid is transfected into HEK293 cells using Fugene6 following manufacturer's instruction. Stable cell-lines are generated following drug selection.
FLIPR (Fluorimetric Imaging Plate Reader, Molecular Devices) assays are performed to measure agonist-induced calcium mobilization in the GPR120-expressing cells. One day before the FLIPR assay, HEK293-GPR120-Ga16 cells are seeded into poly-D-lysine coated black-wall-clear bottom 384 well plates (Falcon) at 25,000 cells per well in 40 μl DMEM supplemented with 1% of FBS. The cells are incubated overnight at 37° C. in a humidified incubator. The medium is aspirated on the day of the FLIPR assay. The cells are incubated with 50 μl/well of the assay buffer (HBSS, 20 mM HEPES, 2.5 mM probenecid, pH7.4) containing Fluo-4 NM dye (Invitrogen cat# F36205) at 37° C. for 45 minutes, and then equilibrated at room temperature for 30 minutes. Compounds are dissolved in DMSO and diluted to desired concentrations with assay buffer. Fluorescent output is measured immediately following compound addition (12.5 μl/well) on the FLIPR machine.
An EC50 value was calculated using the change of fluorescent intensity from the reaction initiation. […] In some examples, compounds provided herein have EC50 values from 0.1 μM to 5 μM, while in other examples from 0.5 μM to 5 μM.
The EC50 value in those experiments is given as that concentration of the test compound in question that provoke a response halfway between the baseline and maximum responses. In certain examples compounds of Formula (I) have EC50 values from 0.001 μM to 5 μM. In other examples, compounds of Formula (I) have EC50 values from 0.001 μM to 4 μM. In other examples, compounds of Formula (I) have EC50 values from 0.001 μM to 3 μM. In other examples, compounds of Formula (I) have EC50 values from 0.001 μM to 2 μM. In other examples, compounds of Formula (I) have EC50 values from 0.001 μM to 1 μM. In other examples, compounds of Formula (I) have EC50 values from 0.001 μM to 0.5 μM. […] In other examples, compounds of Formula (I) have EC50 values from 0.001 μM to 0.1 μM.
The % efficiency in those experiments is given as that % enhancement of the test compound in question relative to a known compound. In certain examples compounds of Formula (I) have a % efficiency values from 50% to 150%. In other examples, compounds of Formula (I) have a % efficiency values from 55% to 150%. In other examples, compounds of Formula (I) have a % efficiency values from 60% to 150%. In other examples, compounds of Formula (I) have a % efficiency values from 65% to 150%. In other examples, compounds of Formula (I) have a % efficiency values from 70% to 150%. In other examples, compounds of Formula (I) have a % efficiency values from 75% to 150%. In other examples, compounds of Formula (I) have a % efficiency values from 80% to 150%. In other examples, compounds of Formula (I) have a % efficiency values from 85% to 150%. In other examples, compounds of Formula (I) have a % efficiency values from 90% to 150%. In other examples, compounds of Formula (I) have a % efficiency values from 95% to 150%. In other examples, compounds of Formula (I) have a % efficiency values from 100% to 150%.

SMILES	pEC50 (read-out: EC50 Range)	Emax [%]	pEC50 (read-out: EC50)
CCn1c(-c2cccc(C#N)c2)cs/c1=N\c1ccc(S(=O)(=O)O)cc1 [Compound 1, (Z)-4-(4-(3-cyanophenyl)-3-ethylthiazol-2(3H)-ylideneamino)benzenesulfonic acid]	6.00 to 6.30		
CCn1c(-c2cc(C(F)(F)F)cc(C(F)(F)F)c2)cs/c1=N\c1ccc(S(=O)(=O)O)cc1 [Compound 2]	6.30 to 6.60	102	6.40
CCn1c(-c2ccccc2)c(C)s/c1=N\c1ccc(S(=O)(=O)O)cc1 [Compound 3, (Z)-4-(3-ethyl-5-methyl-4-phenylthiazol-2(3H)-ylideneamino)benzenesulfonic acid]	6.00 to 6.30	85.6	6.26
CCn1c(-c2cccc(F)c2)cs/c1=N\c1ccc(S(=O)(=O)O)cc1 [Compound 4, (Z)-4-(3-ethyl-4-(3-fluorophenyl)thiazol-2(3H)-ylideneamino)benzenesulfonic acid]	6.30 to 6.60		
CCn1c(-c2cccc(Br)c2)cs/c1=N\c1ccc(S(=O)(=O)O)cc1 [Compound 5, (Z)-4-(4-(3-bromophenyl)-3-ethylthiazol-2(3H)-ylideneamino)benzenesulfonic acid]	6.60 to 7.00		
CCn1c(-c2ccccc2OC(F)(F)F)cs/c1=N\c1ccc(S(=O)(=O)O)cc1 [Compound 6, (Z)-4-(3-ethyl-4-(2-(trifluoromethoxy)phenyl)thiazol-2(3H)-ylideneamino)benzenesulfonic acid]	6.00 to 6.30	123	6.27
CCn1c(-c2cc(Cl)ccc2Cl)cs/c1=N\c1ccc(S(=O)(=O)O)cc1 [Compound 7, (Z)-4-(4-(2,5-dichlorophenyl)-3-ethylthiazol-2(3H)-ylideneamino)benzenesulfonic acid]	6.60 to 7.00	124	6.96
CCn1c(-c2ccccc2Oc2ccccc2)cs/c1=N\c1ccc(C(=O)O)cc1 [Compound 8, (Z)-4-(3-ethyl-4-(2-phenoxyphenyl)thiazol-2(3H)-ylideneamino)benzoic acid]	6.00 to 6.30	88.1	6.11
CCn1c(-c2ccccc2)cs/c1=N\c1ccc(-c2nn[nH]n2)cc1 [Compound 9, (Z)-N-(3-ethyl-4-phenylthiazol-2(3H)-ylidene)-4-(2H-tetrazol-5-yl)aniline]	6.60 to 7.00	98.4	6.68
CCn1c(-c2ccccc2)cs/c1=N\c1ccc(C(=O)O)c(F)c1F [Compound 10, (Z)-4-(3-ethyl-4-phenylthiazol-2(3H)-ylideneamino)-2,3-difluorobenzoic acid]	6.30 to 6.60	86.2	6.31
CCn1c(-c2ccccc2C(F)(F)F)cs/c1=N\c1ccc(C(=O)O)cc1 [Compound 11, (Z)-4-(3-ethyl-4-(2-(trifluoromethyl)phenyl)thiazol-2(3H)-ylideneamino)benzoic acid]	6.60 to 7.00		
CCn1c(-c2ccccc2OC(F)(F)F)cs/c1=N\c1ccc(C(=O)O)cc1 [Compound 12, (Z)-4-(3-ethyl-4-(2-(trifluoromethoxy)phenyl)thiazol-2(3H)-ylideneamino)benzoic acid]	6.30 to 6.60		
CCn1c(-c2cccc(OC(F)(F)F)c2)cs/c1=N\c1ccc(C(=O)O)cc1 [Compound 13, (Z)-4-(3-ethyl-4-(3-(trifluoromethoxy)phenyl)thiazol-2(3H)-ylideneamino)benzoic acid]	6.00 to 6.30		
CCn1c(-c2ccccc2)cs/c1=N\c1ccc(C(=O)O)c(F)c1 [Compound 14, (Z)-4-(3-ethyl-4-phenylthiazol-2(3H)-ylideneamino)-2-fluorobenzoic acid]	6.60 to 7.00		
CCn1c(-c2ccccc2)cs/c1=N\c1ccc(C(=O)O)c(Br)c1 [Compound 15, (Z)-2-bromo-4-(3-ethyl-4-phenylthiazol-2(3H)-ylideneamino)benzoic acid]	6.60 to 7.00		
CCCn1c(-c2ccccc2)cs/c1=N\c1ccc(C(=O)O)cc1 [Compound 16, (Z)-4-(4-phenyl-3-propylthiazol-2(3H)-ylideneamino)benzoic acid]	6.30 to 6.60	96.9	6.32
CC(C)n1c(-c2ccccc2)cs/c1=N\c1ccc(C(=O)O)cc1 [Compound 17, (Z)-4-(3-isopropyl-4-phenylthiazol-2(3H)-ylideneamino)benzoic acid]	6.60 to 7.00		
CCn1c(-c2cccc(O)c2)cs/c1=N\c1ccc(C(=O)O)cc1 [Compound 18, (Z)-4-(3-ethyl-4-(3-hydroxyphenyl)thiazol-2(3H)-ylideneamino)benzoic acid]	6.30 to 6.60		
CCn1c(-c2cc(O)ccc2Br)cs/c1=N\c1ccc(C(=O)O)cc1 [Compound 19, (Z)-4-(4-(2-bromo-5-hydroxyphenyl)-3-ethylthiazol-2(3H)-ylideneamino)benzoic acid]	6.00 to 6.30	81.1	6.20
CCn1c(-c2cccc(OCCOC)c2)cs/c1=N\c1ccc(C(=O)O)cc1 [Compound 20, (Z)-4-(3-ethyl-4-(3-(2-methoxyethoxy)phenyl)thiazol-2(3H)-ylideneamino)benzoic acid]	6.60 to 7.00	77.1	6.92
O=C(O)c1ccc(/N=c2\scc(-c3ccccc3)n2CC2CC2)cc1 [Compound 21, (Z)-4-(3-(cyclopropylmethyl)-4-phenylthiazol-2(3H)-ylideneamino)benzoic acid]	6.30 to 6.60	84.7	6.35
CCC(C)n1c(-c2ccccc2)cs/c1=N\c1ccc(C(=O)O)cc1 (stereo not shown) [Compound 22, (Z)-4-(3-sec-butyl-4-phenylthiazol-2(3H)-ylideneamino)benzoic acid]	6.00 to 6.30		
O=C(O)c1ccc(/N=c2\scc(-c3ccccc3)n2CC(F)F)cc1 [Compound 23, (Z)-4-(3-(2,2-difluoroethyl)-4-phenylthiazol-2(3H)-ylideneamino)benzoic acid]	6.60 to 7.00		
O=C(O)c1ccc(/N=c2\scc(-c3ccccc3)n2CC(F)(F)F)cc1 [Compound 24, (Z)-4-(4-phenyl-3-(2,2,2-trifluoroethyl)thiazol-2(3H)-ylideneamino)benzoic acid]	6.60 to 7.00	71.2	6.74
CCn1c(-c2ccccc2)cs/c1=N\c1c(F)c(F)c(C(=O)O)c(F)c1F [Compound 25, (Z)-4-(3-ethyl-4-phenylthiazol-2(3H)-ylideneamino)-2,3,5,6-tetrafluorobenzoic acid]	6.30 to 6.60		
